# According to PMC8772772, “Enantioselective Synthesis and Pharmacological Evaluation of Aza-CGP37157–Lipoic Acid Hybrids for the Treatment of Alzheimer’s Disease” (Antioxidants, 2022):
# Several values for one entry are separate records, joined by “and”; a condition that tells them apart may be missing. Identical values can stand only once.
# Legend:
# [1] = DPPH reduction assay, antioxidant capacity; details: DPPH 100 µM, 30 min, mean ± SEM; for DPPH Scavenging at 100 µM, %: compound 100 µM; for DPPH Scavenging at 1mM, %: compound 1 mM
# Description: Antioxidant capacity was evaluated by using described procedure slightly modified. Compounds (0.1 and 1 mM, final concentration) were diluted in assay media (EtOH/H2O, 70:30) and mixed with 100 μL of DPPH (SigmaAldrich, D9132, Madrid, Spain) solution (100 μM final concentration) in a clear 96-multiwell plate. Final solution was kept in dark for 30 min, and absorbance of DPPH was measured in a SpectroStar Nano plate-reader (BMG Labtech, Ortenberg, Germany) in duplicate at […]. All experiments included a blank (assay media), control (DPPH 100 μM) and a positive control (ascorbic acid, 100 μM). Data were evaluated as % absorbance (Abs) reduction of control after subtracting blank absorbance. % DPPH reduction = [100 − ((Abssample − Absblank) × 100]/Abscontrol
# Initially, we evaluated the free-radical-scavenging capacity of derivatives 7a–d in the DPPH assay, based on the capacity of the tested derivatives to react with the 2,2-diphenyl-1-picrylhydracil radical to generate a non-radical derivate. Hybrid derivatives 7a–d were evaluated at two different concentrations (0.1 and 1 mM), considering the activities of previously reported racemic derivatives. […] Ascorbic acid was used as a positive control, and CGP37157, rac-3a and (rac,R)-3b were included as references. […] Those results are similar to those obtained for racemic mixtures 3a and 3b and a mixture of (S,R)-7b and (R,R)-7d obtained from rac-3 and R-lipoic acid.
# [2] = Cytotoxicity in SH-SY5Y cell line (MTT); type: cell-based; details: human; SH-SY5Y, 10, 30 and 100 μM, 24 h, MTT; read-out: CC50
# Description: SH-SY5Y human neuroblastoma cells were seeded in 96-well clear multi-well plates (6 × 10^4 cells/well). Cells were treated with increasing concentrations of compounds (10, 30 and 100 μM) for 24 h. Thereafter, viability was assessed by the MTT method. Cytotoxic concentration to observe 50% mortality (CC50) values for compounds were interpolated from dose–response curves represented as percentage of cell death vs. concentration of compound, fitted by non-linear regression and data interpolated to value 50.
# (§1) The tetrazolium ring of MTT can be cleaved by active dehydrogenases to produce a formazan precipitate. At the end of the experiments, MTT (SigmaAldrich, M2003) stock solution was added to each well to achieve a final concentration of 0.5 mg/mL. Cells were incubated for 2 h. Thereafter, culture media was removed, and DMSO was added to each well to dissolve the formazan precipitate. Finally, absorbance was measured in a microplate reader (SPECTROstar nano, BMG Labtech) at 570 nm. Absorbance obtained in basal conditions was considered as 100% cell viability.
# In order to evaluate the potential pharmacological profile of new compounds, we first tested the potential neurotoxicity in the neuroblastoma SHSY5Y cell line. Toxicity was evaluated at increasing concentrations (10, 30 and 100 μM), and toxicity was measured as MTT reduction capability. CC50 values were calculated by non-linear regression of curves % survival vs. concentration (Supplementary Materials Figure S2). CGP37157 and previously studied racemic derivatives rac-3a and (rac,R)-3b were included as reference compounds. As previously described, LA is a non-neurotoxic compound at the concentrations texted.
# BV2 microglial cells = assay: Nitrite production reduction in LPS-stimulated BV2 microglial cells (Griess); type: cell-based, mouse; details: BV2 + LPS, 0.3–30 µM
# Description: BV2 microglial cells were seeded at 2 × 10^4 cells/well and treated with compounds at increasing concentrations during 24 h in complete culture media. Then, treatments were removed, and BV2 cells were co-incubated with compounds and LPS (100 ng/mL) (O127:B8, SigmaAldrich, L3129) for additional 18 h in culture media supplemented with 1% FBS. Each plate included non-treated cells as basal nitrite production. Thereafter, nitrite production was determined by using the modified Griess assay. In brief, samples (150 μL) were mixed with DAPSONE (75 μL) (SigmaAldrich, A74807) and NEDA (75 μL) (SigmaAldrich, 33461), and the mixture was incubated at room temperature for 5 min. Light absorption was measured at 550 nm in a microplate reader (SPECTROstar nano, BMG Labtech). Basal nitrite production was referred to as 100% of nitrite production, and all data were normalized to the basal condition. Concentration needed to reduce nitrite production to 50% was calculated from graphical representation of percentage of nitrite production vs. compound concentration, and data were fitted by non-linear regression and interpolated to 50%.
# Chronic neuroinflammation is considered a key pathological event in the early stages of AD development. Among immune cells present at CNS, microglia is related to host defense and tissue repair. Nonetheless, chronic neuroinflammation induced by an adverse environment of protein aggregates and exacerbated OS induces a neurotoxic activity of microglia that, finally, leads to neuronal death. […] To this end, we selected the BV2 microglial cell model stimulated by lipopolysaccharide (LPS), a TLR4 agonist that activates the pro-inflammatory response. CGP37157, R- and S-LA; analogue compounds rac-3a and (rac,R)-3b; and precursor derivatives 6 were included with comparative and reference purposes. Microglial BV2 cells were treated with increasing concentrations of the corresponding compound (0.3, 3, 10 and 30 µM) for 24 h following a pre-incubation protocol. Thereafter, treatments were exchanged by a combination of the corresponding compound at desired concentration and LPS (100 ng/mL) during 18 h. At the end of this period, nitrite production was evaluated by the Griess method as an indirect measurement of iNOS enzyme expression and BV2 activation.
# [3] = tested on: SH-SY5Y neuroblastoma cells; assay: Neuroprotection against rotenone/oligomycin A oxidative stress in SH-SY5Y cells (MTT); type: cell-based, human; details: compound 1 μM 24 h, then compound + R/O (30/10 μM) 24 h; for % Survival: basal = 100, R/O alone 53.4
# Description: Human neuroblastoma SH-SY5Y cells were plated in 96-well clear multi-well plates (6 × 10^4 cells/well). The potential neuroprotective activity of compounds against OS was evaluated using the rotenone (30 μM) (SigmaAldrich, R8875) and oligomycin A (10 μM) (SigmaAldrich, 75351) (R/O) toxic mixture. Neuroprotection activity against Tau hyperphosphorylation was evaluated by using the okadaic acid (20 nM) model. Cells were pre-incubated with each compound (1 µM) for 24 h, and then treatments were removed and cells were incubated with compounds (1 µM) in the presence the corresponding toxic for additional 24 h. At the end of the experiments, viability was determined by the MTT method. Data were normalized from cell death induced by the toxic stimuli (considered as 100% cell death). Then, the protection percentages were calculated by subtracting from the death induced by toxic stimuli, the death in the presence of the compound.
# as §1
# Thus, we selected a pre-incubation protocol to evaluate their potential neuroprotective capacity based on the NRF2-induction activity and direct antioxidant effect. Compound pre-incubation would induce the expression of antioxidant enzymes regulated by the phase II antioxidant response, thus promoting cells’ survival. The co-incubation period would also evaluate their capacity to trap free radicals produced by intoxicated mitochondria. SH-SY5Y neuroblastoma cells were treated with compounds (1 µM) during 24 h, and then cells were co-incubated with the corresponding compound at the same concentration and the R/O combination (30/10 µM) for additional 24 h. Melatonin, a well-known antioxidant natural neurohormone, was included as a positive control (1 µM). Previously reported racemic derivatives (rac-3a and (rac,R)-3b) and their precursors ((±)-6, R-6 and S-6) were included for comparative purposes at the same concentration.
Structure (SMILES),"DPPH Scavenging at 100 µM, % [1]","DPPH Scavenging at 1mM, % [1]",CC50 at 24 h [2],anti-inflammatory activity (nitrite production) at the evaluated concentrations (BV2 microglial cells),% Protection [3],% Survival [3]
"O=C1CN(CCOC(=O)CCCC[C@@H]2CCSS2)[C@@H](c2ccccc2Cl)c2cc(Cl)ccc2N1 [(R,R)-7d, 2-((R)-7-Chloro-5-(2-chlorophenyl)-2-oxo-1,2,3,5-tetrahydro-4H-benzo[e][1,4]diazepin-4-yl)ethyl 5-((R)-1,2-dithiolan-3-yl)pentanoate]",8.66 ± 3.0%,23.3 ± 3.5%,> 100 µM,no significant activity,50.7%,77.6 ± 4.4%
"O=C1CN(CCOC(=O)CCCC[C@H]2CCSS2)[C@@H](c2ccccc2Cl)c2cc(Cl)ccc2N1 [(S,R)-7b, 2-((R)-7-Chloro-5-(2-chlorophenyl)-2-oxo-1,2,3,5-tetrahydro-4H-benzo[e][1,4]diazepin-4-yl)ethyl 5-((S)-1,2-dithiolan-3-yl)pentanoate]",8.46 ± 3.8%,32.0 ± 1.7%,> 100 µM,,61.1%,81.0 ± 4.7%
"O=C1CN(CCOC(=O)CCCC[C@H]2CCSS2)[C@H](c2ccccc2Cl)c2cc(Cl)ccc2N1 [(S,S)-7a, 2-((S)-7-Chloro-5-(2-chlorophenyl)-2-oxo-1,2,3,5-tetrahydro-4H-benzo[e][1,4]diazepin-4-yl)ethyl 5-((S)-1,2-dithiolan-3-yl)pentanoate]",10.9 ± 3.5%,30.3 ± 1.6%,> 100 µM,no significant activity,43.4%,74.8 ± 3.2%
"O=C1CN(CCOC(=O)CCCC[C@@H]2CCSS2)[C@H](c2ccccc2Cl)c2cc(Cl)ccc2N1 [(R,S)-7c, 2-((S)-7-Chloro-5-(2-chlorophenyl)-2-oxo-1,2,3,5-tetrahydro-4H-benzo[e][1,4]diazepin-4-yl)ethyl 5-((R)-1,2-dithiolan-3-yl)pentanoate]",13.6 ± 3.8%,35.9% and 35.9 ± 1.9%,> 100 µM,no significant activity,47.2%,76.1 ± 2.9%
